Patent US11713297B2, “Crystalline form of N-butyldeoxygalactonojirimycin” (IDORSIA PHARMACEUTICALS LTD, priority 2017, dated 2023)

Columns and labels:
[1] = test system: plasma levels of metabolic substrates; assay: Phase Ib study in patients suffering from Fabry disease; type: in vivo; conditions: on top of enzyme replacement therapy
[2] = Gravimetric vapour sorption (GVS) analysis, hygroscopicity; type: physicochemical; conditions: crystalline form 1; 25° C.; mass change between 40% and 80% RH in first adsorption scan; European Pharmacopeia 8.0 classification
Method: Gravimetric Vapour Sorption (GVS) Analysis
Measurements were performed on a multi sample instrument SPS-100n (Projekt Messtechnik, Ulm, Germany) operated in stepping mode at 25° C. The sample was allowed to equilibrate at 40% RH before starting a pre-defined humidity program (40-0-95-0-95-40% RH, steps of 5% ΔRH and with a maximal equilibration time of 24 hours per step were applied. About 20 to 30 mg of each sample was used. The hygroscopic classification is done according to the European Pharmacopeia 8.0, e.g., slightly hygroscopic: increase in mass is less than 2% and equal to or greater than 0.2% mass/mass; hygroscopic: increase in mass is less than 15% and equal to or greater than 2% mass/mass. The mass change between 40% relative humidity and 80% relative humidity in the first adsorption scan is considered.

[3] = Thermogravimetric analysis (TGA); type: physicochemical; conditions: crystalline form 1; in the range 31.5 to 140° C.
Method: Thermogravimetric Analysis (TGA)
TGA data were collected on a Mettler Toledo STARe System (TGA851e module and STAR software version 9.20) equipped with a 34-position auto-sampler. Typically, about 5 mg of a sample, in an automatically pierced aluminium pan, was heated at 10° C. min^−1, unless stated otherwise, from 30° C. to 250° C. A nitrogen purge at 10 ml min^−1 was maintained over the sample.

[4] = Particle size distribution (PSD) by laser diffraction, wet dispersion; type: physicochemical; conditions: crystalline form 1; average of at least five crystallization batches, each measured in triplicate
Text: Particle size distributions are defined herein as D10, D50 and D90. D10, D50 and D90 represent the particle diameter corresponding to the respective percentage in volume (i.e. 10%, 50%, 90%) of a given sample which is below the indicated diameter. For example, a D50 from about 70 μm to about 150 μm means that 50% of the volume of a given sample has a diameter which is equal or below a diameter that is in the range between about 70 μm and about 150 μm. Particle size distributions may be determined using standard procedures such as laser diffraction.
Particle Size Distribution (PSD)
PSD measurements were performed by laser-diffraction using a wet dispersion method. Data were collected on a Mastersizer 2000 (Malvern) equipped with a dispersion unit Hydro 2000S in the size range from 0.020 μm to 2000.000 μm. Typically, about 100 mg sample in about 20 ml Tegiloxan 3 (silicon oil, CAS Nr. 9016-00-6) is dispersed in an ultrasonic bad for about 30 s and subsequently added to a prefilled with Tegiloxan 3 dispersion unit until obscuration of about 10% to about 30% is achieved. After a circulation time of 5 min, a sample measurement is performed. Reported particle size values (D10, D50 and D90) represent an average value of 3 measurements.
Particle size measurements of COMPOUND in crystalline form 1 as obtained in Examples 1, 2 and Reference Example 3 are performed using the method described herein. Each data point in Table 3 represents an average value obtained from at least five separate crystallization batches, each measured in triplicate.

Structure (SMILES) | plasma levels of metabolic substrates thought to be related to the development of the disease [1] | Hygroscopicity [2] | TGA mass loss [3] | D10 [4] | D50 [4] | D90 [4]
CCCCN1C[C@H](O)[C@@H](O)[C@@H](O)[C@H]1CO [COMPOUND, (2R,3S,4R,5S)-1-butyl-2-(hydroxymethyl)piperidine-3,4,5-triol] | marked decrease | Not hygroscopic | Mass loss of <0.1% in the range | – | – | –
CCCCN1C[C@H](O)[C@@H](O)[C@@H](O)[C@H]1CO [Example 2, (2R,3S,4R,5S)-1-butyl-2-(hydroxymethyl)piperidine-3,4,5-triol] | – | – | – | 7 μm | 57 μm | 138 μm
CCCCN1C[C@H](O)[C@@H](O)[C@@H](O)[C@H]1CO [Reference Example 3, (2R,3S,4R,5S)-1-butyl-2-(hydroxymethyl)piperidine-3,4,5-triol] | – | – | – | 7 μm | 22 μm | 42 μm
